From patent publication US20100273700A1, “USE OF A PEPTIDE AS A THERAPEUTIC AGENT” (priority 2007, published 2010)

Assays:
[1] = test system: CEM-SS cells; assay: Cytotoxicity in the HIV-1 assay (MTS cell viability); conditions: CEM-SS cells plus peptide only; peptide 10 micrograms per ml; MTS
[2] = test system: Primary Human endothelial cells (HUVEC); assay: Endothelial cell migration assay; type: cell-based; conditions: 10 micrograms per ml, 22 hours
[3] = test system: A549 cells; assay: Apoptosis prevention assay (C2 ceramide, Annexin-5); type: cell-based, Human; conditions: A549 cells pretreated 30 min, 10 micrograms per ml
[4] = Cytotoxicity in the HBV assay (dye uptake cell viability); type: cell-based; conditions: human; HepG2-2.2.15 cells; test peptide 10 micrograms per ml; dye uptake assay (% cell control)
[5] = test system: Human Peripheral Blood Mononuclear Cells (PBMC); assay: B cell proliferation assay (SAC plus Interleukin-2, 3H-thymidine); type: cell-based; conditions: 10 micrograms per ml, 3H-thymidine incorporation
[6] = test system: Interleukin-2 (IL-2); assay: Th1/Th2 cytokine profiling assay: IL-2; type: cell-based, Balb/c mice; conditions: Ovalbumin-restimulated spleen cells; 10 micrograms per ml; 72 hours
Excerpt: (§1) The Balb/c mice (originated in 1923, it is a popular strain and is used in many different research disciplines. Also classified as an inbred from the production of 20 or more successive brother-sister matings, the Balb/c mouse is albino and small in size) were immunized on Days 1, 15, and 29 with Ovalbumin (Ovalbumin is the main protein found in egg white, commonly used to stimulate an immunological reaction in test animals) in PBS (5 micrograms/injection). On day 50, spleens of the mice were harvested (3 weeks after last boost with Ovalbumin). Cells were cultured (2×10^5/well in triplicate) and incubated with culture medium or test peptide—10 micrograms per ml—for 30 min. Thereafter, additional Ovalbumin was added to the cells at 10 micrograms/ml for in vitro restimulation of the cells. 72 hours later, cell supernatants were harvested and assayed using the Becton Dickinson Mouse Th1/Th2 Cytokine CBA Kit.

[7] = test system: Interferon-γ (IFN-γ); assay: Th1/Th2 cytokine profiling assay: IFN-γ; type: cell-based, Balb/c mice; conditions: Ovalbumin-restimulated spleen cells; 10 micrograms per ml; 72 hours
Excerpt: as §1

[8] = test system: Interleukin-4 (IL-4); assay: Th1/Th2 cytokine profiling assay: IL-4; type: cell-based, Balb/c mice; conditions: Ovalbumin-restimulated spleen cells; 10 micrograms per ml; 72 hours
Excerpt: as §1

[9] = test system: MRSA; assay: Methicillin Resistant Staphylococcus Aureus (MRSA) assay; type: cell-based; conditions: peptide 10 micrograms per ml, read visually
[10] = test system: RAW 264.7 cells; assay: Phagocytosis assay (Fluorescein-labeled Escherichia coli); type: cell-based, Mouse; conditions: 10 micrograms per ml, flow cytometry
[11] = test system: Pseudomonas aeruginosa; assay: Pseudomonas aeruginosa assay; type: cell-based; conditions: peptide 10 micrograms per ml, read visually
[12] = test system: HUVEC; assay: Endothelial tube formation assay; type: cell-based, Human; conditions: 10 micrograms per ml, 20 hours
Excerpt: Positive control was vehicle only.

[13] = Cytotoxicity testing in MRC-5 cells (CellTiter 96); conditions: human, MRC-5 cells (embryonal lung fibroblasts)
[14] = test system: HCMV strain AD169; assay: HCMV plaque reduction assay; type: cell-based; conditions: MRC-5 cells; peptide 10 micrograms per ml; 7-10 days
Excerpt: Ganciclovir was used as positive control.

[15] = test system: Human Peripheral Blood Mononuclear Cells (PBMC); assay: T cell proliferation assay (PHA, 3H-thymidine); type: cell-based; conditions: 10 micrograms per ml, 3H-thymidine incorporation
[16] = Cytotoxicity in the HIV-1 assay (MTS cell viability); conditions: human, CEM-SS cells (uninfected, cells plus peptide only)
[17] = test system: TNF alpha; assay: TNF alpha production assay (LPS-stimulated macrophages, ELISA); type: cell-based, human; conditions: 10 micrograms per ml, lipopolysaccharide 200 ng/ml, overnight
Excerpt: Not stimulated macrophages served as negative background control.

[18] = test system: A549 cells; assay: Propidium iodide cell cycle assay; type: cell-based, Human; conditions: 10 micrograms per ml, 24 hours, FACS
[19] = test system: Interleukin-5 (IL-5); assay: Th1/Th2 cytokine profiling assay: IL-5; type: cell-based, Balb/c mice; conditions: Ovalbumin-restimulated spleen cells; 10 micrograms per ml; 72 hours
Excerpt: as §1

[20] = test system: Tumor Necrosis Factor-α (TNF-α); assay: Th1/Th2 cytokine profiling assay: TNF-α; type: cell-based, Balb/c mice; conditions: Ovalbumin-restimulated spleen cells; 10 micrograms per ml; 72 hours
Excerpt: as §1

[21] = test system: A549 cells; assay: Apoptosis induction assay (Annexin-5); type: cell-based, Human; conditions: 24 hours exposure
Description: Human A549 cells (carcinomic human alveolar basal epithelial cells) were utilized in the experiments employing the Annexin-5 apoptosis assay. […] Test peptide-micrograms per ml—were exposed for 24 hours to the A549 cells before they were analyzed for signs of apoptosis.

[22] = test system: Streptococcus pneumoniae; assay: Streptococcus pneumoniae assay; type: cell-based; conditions: peptide 10 micrograms per ml, read visually
Excerpt: Results from Streptococcus pneumoniae assay:

[23] = test system: hepatitis B virus (HBV) ayw strain in HepG2-2.2.15 cells; assay: HBV experimental assay system (secreted HBV DNA, TaqMan PCR); type: cell-based; conditions: test peptide 10 micrograms per ml; six days; HBV DNA in supernatant

Structure (SMILES): Cc1cn([C@H]2C[C@H](N=[N+]=[N-])[C@@H](CO)O2)c(=O)[nH]c1=O [AZT, reference compound]
- % Cell viability [1]: 97%

Structure (SMILES): CC(C)C[C@H](NC(=O)[C@H](Cc1ccccc1)NC(=O)CNC(=O)CNC(=O)[C@@H](N)Cc1ccc(O)cc1)C(=O)N[C@@H](CCCNC(=N)N)C(=O)N[C@@H](CCCNC(=N)N)C(=O)N[C@@H](CCC(N)=O)C(=O)N[C@@H](Cc1ccccc1)C(=O)N[C@@H](CCCCN)C(=O)N[C@H](C(=O)N[C@H](C(=O)N[C@H](C(=O)O)[C@@H](C)O)C(C)C)C(C)C [Dynorphin B]
- % inhibition of migration [2]: 57%
- % prevention of ceramide induced apoptosis [3]: 0.0%
- viability at 144 h, 10 micrograms per ml [4]: 89.7%
- % of SAC/IL2 induced control [5]: 104.8%
- IL-2 spleen cells (% of control) [6]: 134.2 % of control
- IFNγ spleen cells; TH1 response (% of control) [7]: 73.9 % of control
- IL-4 spleen cells; TH2 response (% of control) [8]: 208.2 % of control
- % inhibition [9]: 0.0%
- % of control phagocytosis [10]: 102.9%
- % inhibition [11]: 0.0%
- % inhibition of tube formation [12]: 11%
- viability at 144 h [13]: 100%
- % plaque reduction [14]: 1.0%
- % of PHA induced control [15]: 107.1%
- viability at 10 micrograms per ml [16]: 37%
- % Cell viability [1]: toxic
- % of LPS induction [17]: 97.8%
- Cell cycle analysis G0/G1 [18]: 59.5
- Cell cycle analysis G2/M [18]: 8.3
- Cell cycle analysis S [18]: 32.2
- IL-5 spleen cells; TH2 response (% of control) [19]: 82.0 % of control
- TNF-a spleen cells; TH1 response (% of control) [20]: 105.2 % of control
- % of induction [21]: 1.2%
- % inhibition [22]: 100.0%
- % inhibition of HBV replication in HEP G2 cells [23]: 45.7%
